Experimental data: ChEMBL document CHEMBL5608221, “Innovative Therapeutic Approaches Targeting K-Ras: Analysis of Macrocyclic Compounds, Peptidomimetics, and Pyridopyrimidine Inhibitors” (ACS Med Chem Lett, 2024)

Target: GTPase KRas (Homo sapiens, UniProt P01116, G12V)
Assay: Inhibition of GDP bound KRAS G12V mutant (unknown origin)

GTPase KRas, sequence (P01116 whole entry G12V): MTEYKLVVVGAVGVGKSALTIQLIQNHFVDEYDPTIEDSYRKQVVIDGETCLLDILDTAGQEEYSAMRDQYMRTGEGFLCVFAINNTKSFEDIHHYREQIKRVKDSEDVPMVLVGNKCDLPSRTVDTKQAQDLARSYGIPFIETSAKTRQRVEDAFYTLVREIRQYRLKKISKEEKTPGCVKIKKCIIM

Compared with `C#Cc1c(F)ccc2cc(O)cc(-c3ncc4c(N(C)[C@H]5C[C@@H]5F)nc(OC[C@@]56CCCN5CC(=C)C6)nc4c3F)c12`, `C#Cc1c(F)ccc2cc(O)cc(-c3ncc4c(N(C)[C@H]5C[C@@H]5F)nc(OC[C@]56CCCN5CC(=C)C6)nc4c3F)c12` is 2.4-fold higher in IC50: 0.246 nM for the first, 0.589 nM for the second.

Going from `[2H]C([2H])([2H])N(c1nc(OC([2H])([2H])C23CCC([2H])([2H])N2C[C@@]([2H])(F)C3)nc2c(F)c(-c3cc(O)cc4ccc(F)c(C#C)c34)ncc12)[C@H]1C[C@@H]1F` (some centres not stated) to `[2H]C([2H])([2H])N(c1nc(OC([2H])([2H])C23CCC([2H])([2H])N2C[C@]([2H])(F)C3)nc2c(F)c(-c3cc(O)cc4ccc(F)c(C#C)c34)ncc12)[C@H]1C[C@@H]1F` (some centres not stated), the IC50 falls from 0.689 nM to 0.216 nM (3.2-fold).

First: C#Cc1c(F)ccc2cc(O)cc(-c3ncc4c(N(C)[C@H]5C[C@@H]5F)nc(OCC56CCCN5CC(=C)C6)nc4c3F)c12.OCC(F)(F)F (some centres not stated)
Second: C#Cc1c(F)ccc2cc(N)cc(-c3ncc4c(N(C)[C@H]5C[C@@H]5F)nc(OCC56CCCN5CC(=C)C6)nc4c3F)c12.OCC(F)(F)F (some centres not stated)
The IC50 of the first is 5.4-fold lower: 0.371 nM for the first, 1.99 nM for the second.

`C#Cc1c(F)ccc2cc(O)cc(-c3ncc4c(N(C)[C@H]5C[C@@H]5F)nc(OCC56CCCN5CC(=C)C6)nc4c3F)c12` (some centres not stated) showed an IC50 of 0.405 nM.
